Source: US10280158B2, “Immune adjustment compound, use thereof and pharmaceutical composition comprising same” (SUZHOU CONNECT BIOPHARMACEUTICALS, LTD., priority 2013, dated 2019)

What was measured:
[1] = test system: Collagen Type II-Induced Arthritis; experiment: Collagen type II-induced arthritis (rat CIA model); format: in vivo, Lewis rats; details: oral, 1 mg/kg
Protocol: To perform the testing, Lewis rats were induced to develop the disease as follows. Rats were anesthetized with isoflurane and were injected intradermally with a total of 0.5 mL CII/CFA emulsion. The emulsion was injected at 3 sites, one site at the base of the tail (0.1 mL), and the other two sites (0.2 mL/site) on the back of the rat near to the base of the tail. An identical booster injection was given i.d. at 7 days after the primary immunization avoiding previous injection sites.
The positive control group was given TOFACITINIB orally on day 12 after sensitization. The severity of arthritis in four paws was scored 2 times per week starting on day 7 after sensitization. The criteria was as follows: score 0: No evidence of erythema and swelling; score 1: Erythema and mild swelling confined to the mid-foot (tarsals) or ankle joint; score 2: Erythema and mild swelling extending from the ankle to the mid-foot; score 3: Erythema and moderate swelling extending from the ankle to the metatarsal joints; score 4: Erythema and severe swelling encompass the ankle, foot, and digits. Joint swelling, measured by the volume of hind paws using Plethysmometer, was determined on Day 0, and then 2 times per week from Day 7 to Day 28. Destruction of the joint was determined by X-Ray examination on Day 28.

human S1P1 = biological target: T1, human S1P1 (Homo sapiens, UniProt P21453); experiment: Internalization effect experiment on S1P1 (CHO-S cells, Myc tag, flow cytometry); format: cell-based
T1 construct: expressed in transfected cells; host or cells: CHO-S cells
Excerpt: It is well known that S1P1 small molecule agonists can prevent lymphocytes from entering the peripheral circulation by inducing internalization of S1P1 on cell surface. In order to determine whether the compounds provided by present invention have an activity of inducing S1P1 internalization, CHO—S cells expressing human S1P1, to replace the lymphocytes, are used as detection system of S1P1 internalization. For ease of monitoring the S1P1 on cell surface, a Myc tag is fused to N-terminal of S1P1, thus the expression of S1P1 is analyzed by flow cytometry after incubating the cells with fluorescent-labeled antibody against the Myc tag.
A 10 mM stock solution was prepared by dissolving compound 2 provided by the present invention in dimethyl sulfoxide (DMSO), and then the stock solution was diluted to different concentrations as desired with DMEM. CHO—S cells bearing human S1P1 with Myc tag were harvested and then adjusted to a density of one million cells per mL by Dulbecco's modified Eagle's medium (DMEM). Different concentrations of Compound 2 diluted in an equal volume were mixed and the cell suspension and then incubated at 37° C. for 1 hour. After incubation, the mixture was centrifuged at 800 RPM for 5 minutes to obtain the cells. The cells were resuspended in FACS buffer (PBS containing 1% BSA), and Myc antibody labelled with fluorescein isothiocyanate (FITC) (from Californian Miltenyi Biotec GmbH, USA) was added in and incubated for 1 hour on ice. The cells were washed, resuspended in pre-cooled FACS buffer and analysed by FACS Calibur flow cytometry.

[2] = test system: experimental autoimmune encephalomyelitis (EAE); experiment: Experimental autoimmune encephalomyelitis (EAE) model; format: in vivo; details: oral, 0.03, 0.1 and 1 mg/kg, Day 0 to Day 30, C57BL/6 mice
[3] = In vivo pharmacokinetic experiment, intravenous administration; design: species or system Sprague Dawley rats
Protocol: In this Example, the pharmacokinetic properties of compounds 1, 2, 3, 4 and 5 were evaluated via. i.v. and p.o. dosing to Sprague Dawley rats.
Experimental animals used in this Example and hereinafter were male SD rats of 7-9 weeks old, with body weight ranging from 186 to 231 g, which were purchased from Beijing Vital River Laboratory Animal Technology Co., Ltd. The animals were quarantined by veterinarian for 5 days after purchase, then animals had passed quarantine inspection were selected to be tested under SPE conditions, wherein the tested animals are assigned into 3 rats per group as follows.
Intravenous administration group: 1.61 mg of each of compounds 1-5 was respectively prepared into a solution of 1 mg/mL by using 1.610 mL 10% HP-β-CD as a diluent. Each solution was vortexed 1-2 mins after mixed fully, and then was ultrasonically treated for 28-30 mins. The obtained solution was used as medicine administrated to intravenous administration group, and the administration was conducted with a dose of 1 mL/kg body weight of each rat.
For both oral administration group and intravenous administration group, blood samples were collected at 0.0833 h (5 min), 0.25 h (15 min), 0.5 h, 1 h, 2 h, 4 h, 8 h, and 24 h after administration. After isoflurane anesthesia 0.3 mL whole blood was collected from orbital venous plexus of the animals at each time point. The animals would be euthanized after all samples were collected.
The collected blood samples were placed in EP tubes containing heparin sodium (about 10 μl, 1000 IU/mL), which were then placed in trash ice immediately, and centrifuged at 4,000 rpm and a low temperature (4° C.) for 5 minutes. The plasma was isolated rapidly and then stored at −20° C. until analysis.
The concentration of each compound in blood was measured by LC-MS/MS-001 (Q-trap-3200) with osalmide as internal standard material, as follows. 24 μL blank plasma was added into 6 μL plasma sample (5 times of dilution), and then a solution of acetonitrile containing 150 μL internal standard material (osalmide in 100 μg/mL) was added in. The mixture was shaken for 5 minutes, and then centrifuged at 4,000 rpm for 5 minutes. 2 μL of the obtained sample was implanted into LC-MS/MS for analysis. As for undiluted plasma sample, 30 μL of it was added into a solution of acetonitrile containing 150 μL internal standard material (osalmide in 100 μg/mL). The mixture was shaken for 5 minutes, and then centrifuged at 4,000 rpm for 5 minutes. 2 μL of the obtained sample was implanted into LC-MS/MS for analysis.
As for data analysis, WinNolin (V6.2) non-compartment model (NCA) was used for calculating main metabolic pharmacokinetic parameters including t1/2, AUC(0−t), AUCinf, V, Cl, MRT, etc., and Microsoft Office EXCEL was used for calculating mean values, standard deviations and coefficients of variation.

[4] = intravenous administration, rats, in words
[5] = male, Sprague-Dawley, rat, plasma, intravenous administration (1 mg/kg), SD rats

T1 sequence (P21453 whole entry): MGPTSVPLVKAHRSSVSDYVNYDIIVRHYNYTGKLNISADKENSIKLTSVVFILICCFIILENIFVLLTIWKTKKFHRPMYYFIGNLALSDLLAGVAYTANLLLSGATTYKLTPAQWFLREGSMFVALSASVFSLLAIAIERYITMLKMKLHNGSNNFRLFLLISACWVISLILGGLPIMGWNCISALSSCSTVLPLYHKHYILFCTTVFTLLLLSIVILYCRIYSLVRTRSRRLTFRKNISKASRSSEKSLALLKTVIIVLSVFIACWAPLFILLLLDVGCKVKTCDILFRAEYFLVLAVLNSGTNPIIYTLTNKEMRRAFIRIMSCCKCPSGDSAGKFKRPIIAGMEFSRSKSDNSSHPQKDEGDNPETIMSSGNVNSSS

EC50 (human S1P1; CHO-S cells expressing human S1P1, 1 hour at 37° C., read-out: Receptor Internalization (EC50) S1P1): 9.83 nM | activity of inducing S1P1 internalization (human S1P1; CHO-S cells expressing human S1P1, in words): dose-dependent manner | mean residence time (MRT) compared with compound 1 [3, 4]: reduced significantly | terminal half-life compared with compound 1 [3, 4]: reduced significantly | AUC(0-inf) [3, 5]: 2010 ± 146 ng·h/mL | MRT inf [3, 5]: 6.28 ± 0.44 h | clearance [3, 5]: 8.32 mL/min/kg | half-life ([3]; male, Sprague-Dawley, rat, plasma, intravenous administration (1 mg/kg), SD rats, read-out: T½ (converted)): 5.47 ± 0.42 h | Vd ([3]; male, Sprague-Dawley, rat, plasma, intravenous administration (1 mg/kg), SD rats, read-out: Vss): 3.12 ± 0.101 L/kg
Structure (SMILES): CC(C)Cc1ccc(-c2nc(-c3ccc(CN4CC(C(=O)O)C4)c(F)c3)no2)cc1 [Compound 2, 1-{2-fluoro-4-[5-(4-isobutylphenyl)-1,2,4-oxadiazol-3-yl]-benzyl}-3-azetidine carboxylic acid]
development of arthritis based on joint swelling ([1]; Lewis rats, FIG. 5): effective in inhibiting the development of arthritis | development of arthritis based on destruction of joint structure ([1]; X-Ray on Day 28, Lewis rats, FIG. 6): effective in inhibiting the development of arthritis | development of EAE (clinical score) [2]: effectively inhibited development of EAE
